{
  "source": "patent US20190070128A1",
  "about": "“USE OF CANNABIDIVARIN IN THE TREATMENT OF AUTISM SPECTRUM DISORDER, ASSOCIATED DISORDERS AND SCHIZOPHRENIA” (GW Research Limited, priority 2016, published 2019)",
  "key": {"hCB1 [1]": {"molecular_target": "T1, hCB1 (Homo sapiens, UniProt P21554)", "T1 sequence (P21554 whole entry)": "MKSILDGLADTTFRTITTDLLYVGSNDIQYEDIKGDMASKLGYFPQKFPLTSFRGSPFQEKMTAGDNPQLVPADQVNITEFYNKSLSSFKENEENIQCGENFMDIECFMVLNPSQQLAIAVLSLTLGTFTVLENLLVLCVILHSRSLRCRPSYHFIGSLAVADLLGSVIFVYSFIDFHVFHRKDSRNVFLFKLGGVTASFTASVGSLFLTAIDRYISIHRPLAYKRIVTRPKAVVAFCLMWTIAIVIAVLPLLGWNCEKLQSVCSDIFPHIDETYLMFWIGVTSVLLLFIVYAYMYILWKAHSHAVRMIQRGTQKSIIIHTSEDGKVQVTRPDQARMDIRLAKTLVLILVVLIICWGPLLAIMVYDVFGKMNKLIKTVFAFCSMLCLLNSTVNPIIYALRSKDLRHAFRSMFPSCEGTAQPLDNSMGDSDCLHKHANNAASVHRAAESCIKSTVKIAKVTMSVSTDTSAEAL", "details": "cited from earlier work"}, "VPA-exposed rats": {"test_system": "VPA-exposed rats", "assay": "locomotor activity and repetitive behaviours, prenatal VPA model", "format": "in vivo, rat", "protocol": "Pregnant Sprague-Dawley rats (Charles River, Calco, Italy), received a single intraperitoneal injection of 500 mg/kg sodium valproate on the 12.5 day after conception, and control females were injected with physiological saline at the same time. Sodium valproate (Sigma Aldrich, Milan, IT) was dissolved in saline at a concentration of 250 mg/ml.\nCBDV was dissolved in ethanol, cremophor and saline (1:1:18). Symptomatic treatment with CBDV at doses of 0.2, 2, 20, and 100 mg/kg/day i.p. was performed starting from PND 34 (early adolescence) till 56 (early adulthood), both in male and female offspring of dams injected with VPA 500 mg/kg (or vehicle) on day 12.5 after conception. At PND 56, a series of behavioural tests was performed in order to assess the effect of chronic CBDV on sociability, social novelty, short-term memory, locomotion and stereotyped/repetitive behaviours.\nLocomotor activity and repetitive behaviours: Locomotor activity was recorded in an activity cage for 20 minutes with the aid of Anymaze program (Ugo Basile, Italy). In this period, repetitive behaviours (self-grooming and digging) were measured by an observer blind to the treatment group."}, "[2]": {"molecular_target": "T2, CB1 cannabinoid receptors (Mus musculus, UniProt P47746)", "T2 construct": "in both MF1 mouse brain and hCB1-CHO cell membranes; from tissue; host or cells: MF1 mouse brain membranes", "T2 sequence (P47746 whole entry)": "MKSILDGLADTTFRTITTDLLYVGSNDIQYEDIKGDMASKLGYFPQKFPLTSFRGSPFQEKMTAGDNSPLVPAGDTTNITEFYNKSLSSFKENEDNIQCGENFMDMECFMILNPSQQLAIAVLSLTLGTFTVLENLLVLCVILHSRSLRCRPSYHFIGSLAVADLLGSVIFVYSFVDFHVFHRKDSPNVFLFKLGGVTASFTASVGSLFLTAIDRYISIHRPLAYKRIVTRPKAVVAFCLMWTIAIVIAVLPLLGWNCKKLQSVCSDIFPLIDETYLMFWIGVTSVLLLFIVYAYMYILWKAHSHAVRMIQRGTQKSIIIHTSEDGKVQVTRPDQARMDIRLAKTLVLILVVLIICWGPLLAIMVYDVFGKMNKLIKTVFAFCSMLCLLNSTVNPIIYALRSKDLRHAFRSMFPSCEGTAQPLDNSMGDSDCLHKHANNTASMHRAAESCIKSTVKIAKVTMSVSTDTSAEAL", "details": "MF1 mouse brain membranes; extract compared with purified CBDV; cited from earlier work"}, "MeCP2 KO mice [3]": {"test_system": "MeCP2 KO mice", "assay": "survival of MeCP2 KO and WT mice", "format": "in vivo, mouse", "details": "for survival rate: vehicle 25%", "protocol": "(§1) CBDV was administered daily at the dose of 2, 20 and 200 mg/kg i.p. starting from PND 28 and the following signs were scored every other day: hindlimb clasping (indication of motor imbalance), tremor, gait (measure of coordination), breathing, mobility and general condition.\n(§2) The CBDV was dissolved in ethanol, cremophor and saline (1:1:18).\n(§3) Starting from PND 28, mice received a daily intraperitoneal injection of CBDV (or vehicle) at the dose of 2, 20 and 200 mg/kg. Animals were then scored every other day to evaluate the effect of CBDV treatment on motor symptoms (hindlimb clasping, gait, mobility) as well as neurological signs and general conditions (breathing abnormalities, tremors and general condition) present in MeCP2 knockout (KO) mice."}, "hCB1 [4]": {"molecular_target": "T1, hCB1", "design": "expressed in transfected cells; host or cells: CHO cells expressing hCB1 (membranes)", "details": "hCB1-CHO cell membranes; extract compared with purified CBDV; cited from earlier work"}, "Ube3am-/p+ (AS) mice": {"test_system": "Ube3am-/p+ (AS) mice", "assay": "audiogenic seizure susceptibility in Angelman syndrome mice", "format": "in vivo, mouse", "details": "for mice experiencing seizures: baseline 100%", "protocol": "Heterozygous mice with maternal deficiency of Ube3A (Ube3am−/p+) and wild type (Ube3am+/p+) were purchased from The Jackson Laboratory (Jackson code: B6.12957-Ube3a tm1Alb/J) and maintained in a C57BL/6 background.\nFor the audiogenic seizure tests CBDV was administered at 20, 200 and 400 mg/kg.\nSeizure susceptibility: Audiogenic seizures were induced by vigorously scraping scissors across the metal grating of the cage lid which produces a 100 DB high frequency loud noise. This was done for 20 seconds. This test consists of 3 phases. In phase 1 all mice were tested for epilepsy. In phase 2 all mice were injected daily with either vehicle or a drug for 7 or 10 days. In phase 3 mice were tested for epilepsy (one hour after last injection)."}, "MeCP2 KO mice [5]": {"test_system": "MeCP2 KO mice", "assay": "Novel Object Recognition (NOR) test in MeCP2 KO mice", "format": "in vivo, mouse", "protocol": "Furthermore, the efficacy of CBDV in reverting/attenuating the short- and long-term memory deficits present in these mice was evaluated. The Novel Object Recognition (NOR) test was performed before the starting of the treatment Post Natal Day 28 (PND 28), at PND 41 when the first motor symptoms appear and at PND 56 and 66 when the disease is fully manifested.\nAt PND 28, 41, 56 and 66 the effect of CBDV on short- and long-term memory deficits was investigated through the Novel Object Recognition (NOR) test.\nThe experimental apparatus used for the Novel Object Recognition test was an open-field box (43×43×32 cm) made of Plexiglas, placed in a dimly illuminated room. Animals performed each test individually.\nBriefly, each animal was placed in the arena and allowed to explore two identical previously unseen objects for 10 minutes (familiarization phase). After an inter-trial interval of 30 minutes and 24 hours one of the two familiar objects was replaced by a novel, previously unseen object and mice were returned to the arena for the 10-minute test phase.\nDuring the test phase the time spent exploring the familiar object (Ef) and the new object (En) was recorded separately by two observers blind to the groups and the discrimination index was calculated as follows: [(En−Ef)/(En+Ef)]×100."}, "MeCP2 KO mice [6]": {"test_system": "MeCP2 KO mice", "assay": "body weight gain in MeCP2 KO and WT mice", "format": "in vivo, mouse", "protocol": "as §1, §2, §3"}},
  "data": [
    {"smiles": "C=C(C)[C@@H]1CCC(C)=C[C@H]1c1c(O)cc(CCC)cc1O", "note": "[CBDV, Cannabidivarin]", "values": [
      {"measurement": "affinity for the CB1 receptor", "setting": "hCB1 [1]", "value": "low affinity"},
      {"measurement": "time spent in compulsive self-grooming", "setting": "VPA-exposed rats; females, 2 and 100 mg/kg", "value": "significantly normalize"},
      {"measurement": "time spent in compulsive self-grooming", "setting": "VPA-exposed rats; males, 20 mg/kg", "value": "significantly normalize"},
      {"measurement": "locomotion increased by VPA", "setting": "VPA-exposed rats; males, 2, 20 and 100 mg/kg", "value": "normalize"},
      {"measurement": "affinity for CB1 cannabinoid receptors", "setting": "[2]", "value": "neither bound with high enough affinity"},
      {"measurement": "survival rate", "setting": "MeCP2 KO mice [3]; MeCP2 KO mice, 2 mg/kg", "value": 62.5, "unit": "%"},
      {"measurement": "survival rate", "setting": "MeCP2 KO mice [3]; MeCP2 KO mice, 20 mg/kg", "value": 62.5, "unit": "%"},
      {"measurement": "survival rate", "setting": "MeCP2 KO mice [3]; MeCP2 KO mice, 200 mg/kg", "value": 75, "unit": "%"},
      {"measurement": "survival measured at PND 67", "setting": "MeCP2 KO mice [3]; MeCP2 KO mice, all three doses (2, 20, 200 mg/kg)", "value": "increase survival"},
      {"measurement": "lethality", "setting": "MeCP2 KO mice [3]; WT mice treated with CBDV", "value": "No lethality"},
      {"measurement": "affinity for CB1 cannabinoid receptors", "setting": "hCB1 [4]", "value": "neither bound with high enough affinity"},
      {"measurement": "seizure susceptibility", "setting": "Ube3am-/p+ (AS) mice; AS mice, 20 mg/kg or 200 mg/kg, 7 or 10 days treatment", "value": "no effect"},
      {"measurement": "number of mice with seizures", "setting": "Ube3am-/p+ (AS) mice; AS mice, 400 mg/kg", "value": "statistically significant decrease"},
      {"measurement": "mice experiencing seizures", "setting": "Ube3am-/p+ (AS) mice; AS mice, 400 mg/kg, after 7 days treatment", "value": 60, "unit": "%"},
      {"measurement": "mice experiencing seizures", "setting": "Ube3am-/p+ (AS) mice; AS mice, 400 mg/kg, after 10 days treatment", "value": 30, "unit": "%"},
      {"measurement": "reduction of seizure susceptibility", "setting": "Ube3am-/p+ (AS) mice; Angelman mice, 400 mg/kg, after 10 days treatment", "value": 70, "unit": "%"},
      {"measurement": "cognitive impairment in short-term memory", "setting": "MeCP2 KO mice [5]; MeCP2 KO mice, 2, 20 and 200 mg/kg, each time point (PND 41, 56, 66), 30 minutes interval", "value": "significantly reverted"},
      {"measurement": "cognitive impairment in long-term memory", "setting": "MeCP2 KO mice [5]; MeCP2 KO mice, all three doses, 24 hours interval", "value": "significantly counteract"},
      {"measurement": "recognition memory (long-term)", "setting": "MeCP2 KO mice [5]; WT littermates", "value": "without affecting"},
      {"measurement": "recognition memory (short-term)", "setting": "MeCP2 KO mice [5]; WT littermates", "value": "without affecting"},
      {"measurement": "body weight (area under the curve)", "setting": "MeCP2 KO mice [6]; MeCP2 KO mice", "value": "significantly rescued"},
      {"measurement": "reduction in body weight", "setting": "MeCP2 KO mice [6]; MeCP2 KO mice, 2, 20 and 200 mg/kg i.p. daily, PND 28-66", "value": "partially prevent"},
      {"measurement": "body weight (area under the curve)", "setting": "MeCP2 KO mice [6]; WT controls", "value": "without affecting"}
    ]}
  ]
}
